System: organophosphorous agent resistant two-spotted spider mites
Experiment: Effect on Two-spotted Spider Mite (spray on kidney bean leaves)
Type: in vivo
Settings: 125 ppm, water dispersible powder of Formulation Example 1 sprayed, 17 female adults, 25° C., 65% humidity, 3 days
Source text: Effect on Two-spotted Spider Mite
17 female adults of organophosphorous agent resistant two-spotted spider mites were inoculated onto the first leaves of kidney beans seeded onto 3.5 inch pots and germinated 7 to 10 days before, onto which each of liquid agents, diluted with water so as to adjust the respective concentration of the chemical compounds to 125 ppm according to the formulation of the water dispersible powder shown in the aforementioned Formulation Example 1, was sprayed. After they were left in a thermostatic chamber at 25° C. in 65% humidity for 3 days, the rate of killed adults was investigated. The examination was repeated twice. As the results, the following chemical compounds killed 100% of the adults.

| SMILES | rate of killed adults |
| --- | --- |
| CC(Br)COc1cc(C(F)(F)F)ccc1OC1CC2CCC(C1)N2c1ccc(C(F)(F)F)cn1 (stereo not shown) [2-195] | 100% |
| CN(C)S(=O)(=O)Oc1cc(C(F)(F)F)ccc1OC1CC2CCC(C1)N2c1ccc(C(F)(F)F)cn1 (stereo not shown) [2-155] | 100% |
| CCCOc1cc(C(F)(F)F)ccc1O[C@@H]1[C@@H]2CC[C@H]1CN(c1ccc(C(F)F)cn1)C2 [5-99] | 100% |
| COC(C)COc1cc(C(F)(F)F)ccc1OC1C2CCC1CN(c1ccc(C(F)(F)F)cn1)C2 (stereo not shown) [5-128] | 100% |
| CCCOc1cc(C#N)ccc1OC1CC2CCC(C1)N2c1ccc(C(F)(F)F)cn1 (stereo not shown) [2-81] | 100% |
| C#CCOc1cc(C(F)(F)F)ccc1OC1CC2CCC(C1)N2c1ccc(C(F)(F)F)cn1 (stereo not shown) [2-143] | 100% |
| CC=Cc1cc(C(F)(F)F)ccc1OC1CCN(c2ccc(C(F)(F)F)cn2)CC1 [1-73] | 100% |
| FC(F)(F)c1ccc(N2CC3CCC(C2)C3Oc2ccc(C(F)(F)F)cc2OCC2CCO2)nc1 (stereo not shown) [5-213] | 100% |
| CCC(C)OC(=O)c1cc(C(F)(F)F)ccc1OC1CC2CCC(C1)N2c1ccc(C(F)(F)F)cn1 (stereo not shown) [2-208] | 100% |
| CCCC(O)c1cc(C(F)(F)F)ccc1OC1CC2CCC(C1)N2c1ccc(C(F)(F)F)cn1 (stereo not drawn) [2-184, 3α-[2-(1-hydroxybutyl)-4-(trifluoromethyl)phenoxy]-8-[5-(trifluoromethyl)-2-pyridyl]-8-azabicyclo[3.2.1]octane] | 100% |
| CCCOCc1cc(C(F)(F)F)ccc1OC1CC2CCC(C1)N2c1ccc(C(F)(F)F)cn1 (stereo not shown) [2-171] | 100% |
| C#CCON=Cc1cc(C(F)(F)F)ccc1OC1CC2CCC(C1)N2c1ccc(C(F)(F)F)cn1 (stereo not shown) [2-221] | 100% |
| Cc1cnc(-c2cc(C(F)(F)F)ccc2OC2CC3CCC(C2)N3c2ccc(C(F)(F)F)cn2)o1 (stereo not shown) [2-205] | 100% |
| COCCOc1cc(C(F)(F)F)ccc1OC1CCN(c2ccc(C(F)(F)F)cn2)CC1 [1-115] | 100% |
| CCCOc1cc(C(F)(F)F)ccc1OC1CCN(c2ccc(C(F)(F)F)cn2)CC1CCC (stereo not shown) [1-192] | 100% |
| CC(C)COc1cc(C(F)(F)F)ccc1OC1CC2CCC(C1)N2c1ccc(C(F)(F)F)cn1 (stereo not shown) [2-98] | 100% |
| CC(C)S(=O)(=O)Oc1cc(C(F)(F)F)ccc1OC1C2CCC1CN(c1ccc(C(F)(F)F)cn1)C2 (stereo not shown) [5-164] | 100% |
| FC(F)(F)c1ccc(N2C3CCC2CC(Oc2ccc(C(F)(F)F)cc2C2OCCO2)C3)nc1 (stereo not drawn) [2-169, 3α-{2-([1,3]dioxolane-yl)-4-(trifluoromethyl)phenoxy}-8-[5-(trifluoromethyl)-2-pyridyl]-8-azabicyclo[3.2.1]octane] | 100% |
| COCCc1cc(C(F)(F)F)ccc1O[C@@H]1[C@@H]2CC[C@H]1CN(c1ccc(C(F)(F)F)cn1)C2 [5-246] | 100% |
| COC(C)(C)COc1cc(C(F)(F)F)ccc1OC1C2CCC1CN(c1ccc(C(F)(F)F)cn1)C2 (stereo not shown) [5-130] | 100% |
| CCCCCOc1cc(C(F)(F)F)ccc1OC1CC2CCC(C1)N2c1ccc(C(F)(F)F)cn1 (stereo not shown) [2-100] | 100% |
| FC(F)(F)c1ccc(OC2CCN(c3ccc(C(F)(F)F)cn3)C2)cc1 (stereo not shown) [8-63, 3-[4-(trifluoromethyl)phenoxy]-1-[5-(trifluoromethyl)-2-pyridy]pyrrolidine] | 100% |

| SMILES | rate of killed adults |
| --- | --- |
| CC1COC(c2cc(C(F)(F)F)ccc2OC2CC3CCC(C2)N3c2ccc(C(F)(F)F)cn2)=N1 (stereo not shown) [2-199] | 100% |
| CCCOc1cc(C(F)(F)F)cc(Cl)c1OC1CC2CCC(C1)N2c1ccc(C(F)(F)F)cn1 (stereo not shown) [2-95] | 100% |
| C#CCOc1cc(C(F)(F)F)ccc1OC1CCN(c2ccc(C(F)(F)F)cn2)CC1 [1-163] | 100% |
| CCCc1cc(Cl)ccc1OC1CCN(c2ccc(C(F)(F)F)cn2)CC1 [1-57] | 100% |
| FC(F)(F)c1ccc(N2CC3CCC(C2)C3Oc2ccc(C(F)(F)F)cc2OCc2cccs2)nc1 (stereo not shown) [5-209] | 100% |
| CCCC(=O)c1cc(C(F)(F)F)ccc1OC1C2CCC1CN(c1ccc(C(F)(F)F)cn1)C2 (stereo not shown) [5-240] | 100% |
| C=C(Cl)COc1cc(C(F)(F)F)ccc1OC1CC2CCC(C1)N2c1ccc(C(F)(F)F)cn1 (stereo not shown) [2-183] | 100% |
| FC(F)(F)c1ccc(N2CC3CCC(C2)C3Oc2ccc(C(F)(F)F)cc2OCCCl)nc1 (stereo not shown) [5-147] | 100% |
| COCCOc1cc(C(F)(F)F)ccc1OC1CC2CCC(C1)N2c1ccc(C(F)(F)F)cn1 (stereo not shown) [2-112] | 100% |
| O=[N+]([O-])c1cc(C(F)(F)F)ccc1O[C@@H]1[C@@H]2CC[C@H]1CN(c1ccc(C(F)(F)F)cn1)C2 [5-38] | 100% |
| CC(C)(O)COc1cc(C(F)(F)F)ccc1OC1C2CCC1CN(c1ccc(C(F)(F)F)cn1)C2 (stereo not shown) [5-129] | 100% |
| O=C(OCC1CC1)c1cc(C(F)(F)F)ccc1OC1CC2CCC(C1)N2c1ccc(C(F)(F)F)cn1 (stereo not shown) [2-237] | 100% |
| CCCOc1cc(C(F)(F)F)ccc1OC1CC2CCC(C1)N2c1ccc(C(F)(F)F)c[n+]1[O-] (stereo not drawn) [2-83, 3α-[2-propoxy-4-(trifluoromethyl)phenoxy]-8-[5-(trifluoromethyl)-2-pyridyl-1-oxy]-8-azabicyclo[3.2.1]octane] | 100% |
| C=C(C)COc1cc(C(F)(F)F)ccc1OC1CC2CCC(C1)N2c1ccc(C(F)(F)F)cn1 (stereo not drawn) [2-147, 3α-[2-(2-methylallyloxy)-4-(trifluoromethyl)phenoxy]-8-[5-(trifluoromethyl)-2-pyridyl]-8-azabicyclo[3.2.1]octane] | 100% |
| FC(F)(F)c1ccc(N2CC3CCC(C2)C3Oc2ccc(C(F)(F)F)cc2OCC2CCCO2)nc1 (stereo not shown) [5-204] | 100% |
| CC1CN=C(c2cc(C(F)(F)F)ccc2OC2CC3CCC(C2)N3c2ccc(C(F)(F)F)cn2)O1 (stereo not shown) [2-201] | 100% |
| CCCN(C)c1cc(C(F)(F)F)ccc1OC1CC2CCC(C1)N2c1ccc(C(F)(F)F)cn1 (stereo not shown) [2-161] | 100% |
| CCC(C)=NOc1cc(C(F)(F)F)ccc1OC1CC2CCC(C1)N2c1ccc(C(F)(F)F)cn1 (mixture of isomers) [2-226] | 100% |
| CC(OC(=O)c1cc(C(F)(F)F)ccc1OC1CC2CCC(C1)N2c1ccc(C(F)(F)F)cn1)C1CC1 (stereo not shown) [2-239] | 100% |
| CON=C(C)COc1cc(C(F)(F)F)ccc1OC1C2CCC1CN(c1ccc(C(F)(F)F)cn1)C2 (stereo not shown) [5-184] | 100% |
| CC(C)(C)COc1cc(C(F)(F)F)ccc1OC1CC2CCC(C1)N2c1ccc(C(F)(F)F)cn1 (stereo not shown) [2-111] | 100% |
| CCC(Cl)c1cc(C(F)(F)F)ccc1OC1CCN(c2ccc(C(F)(F)F)cn2)CC1 (stereo not shown) [1-82] | 100% |

| SMILES | rate of killed adults |
| --- | --- |
| COc1cc(C(F)(F)F)ccc1O[C@@H]1[C@@H]2CC[C@H]1CN(c1ccc(C(F)(F)F)cn1)C2 [5-89] | 100% |
| CC1(C)COC(c2cc(C(F)(F)F)ccc2OC2CC3CCC(C2)N3c2ccc(C(F)(F)F)cn2)=N1 (stereo not shown) [2-210] | 100% |
| CCCOc1cc(C(F)(F)F)ccc1O[C@H]1C[C@H]2CC[C@@H](C1)N2c1ccc(C(F)(F)F)cn1 [2-82, 3α-[2-propoxy-4-(trifluoromethyl)phenoxy]-8-[5-(trifluoromethyl)-2-pyridyl]-8-azabicyclo[3.2.1]octane] | 100% |
| FC(F)(F)c1ccc(N2CC3CCC(C2)C3Oc2ccc(C(F)(F)F)cc2OCC2CCCO2)nc1 (stereo not shown) [5-214] | 100% |
| CC(C)(C)OC(=O)c1cc(C(F)(F)F)ccc1OC1CC2CCC(C1)N2c1ccc(C(F)(F)F)cn1 (stereo not shown) [2-198] | 100% |
| CCCNc1cc(C(F)(F)F)ccc1OC1CC2CCC(C1)N2c1ccc(C(F)(F)F)cn1 (stereo not shown) [2-160] | 100% |
| Cc1cc(Cl)ccc1OC1CCN(c2ccc(C(F)(F)F)cn2)CC1 [1-49] | 100% |
| [O-][S+](c1ccc(OC2CCN(c3ccc(C(F)(F)F)cn3)CC2)cc1)C(F)(F)F (stereo not shown) [1-150] | 100% |
| CCOc1cc(C(F)(F)F)ccc1OC1CC2CCC(C1)N2c1ccc(C(F)(F)F)cn1 (stereo not shown) [2-78] | 100% |
| CCCOc1cc(C#N)ccc1O[C@@H]1[C@@H]2CC[C@H]1CN(c1ccc(C(F)(F)F)cn1)C2 [5-102] | 100% |
| Cc1cc(F)ccc1OC1CCN(c2ccc(C(F)(F)F)cn2)CC1 [1-48] | 100% |
| COc1cc(C(F)(F)F)ccc1OC1CC2CCC(C1)N2c1ccc(C(F)(F)F)cn1 (stereo not drawn) [2-77, 3α-[2-methoxy-4-(trifluoromethyl)phenoxy]-8-[5-(trifluoromethyl)-2-pyridyl]-8-azabicyclo[3.2.1]octane] | 100% |
| CC(O)COc1cc(C(F)(F)F)ccc1OC1C2CCC1CN(c1ccc(C(F)(F)F)cn1)C2 (stereo not shown) [5-127] | 100% |
| FC(F)(F)c1ccc(N2C3CCC2CC(Oc2ccc(C(F)(F)F)cc2OC2CCOC2)C3)nc1 (stereo not shown) [2-179] | 100% |
| C=CCCOc1cc(C(F)(F)F)ccc1OC1CC2CCC(C1)N2c1ccc(C(F)(F)F)cn1 (stereo not shown) [2-144] | 100% |
| OCCOc1cc(C(F)(F)F)ccc1OC1CCN(c2ccc(C(F)(F)F)cn2)CC1 [1-118] | 100% |
| FC(F)(F)c1ccc(N2CCC(Oc3cccc(C(F)(F)F)c3)CC2)nc1 [1-76] | 100% |
| CCOC(=O)c1cc(C(F)(F)F)ccc1OC1CC2CCC(C1)N2c1ccc(C(F)(F)F)cn1 (stereo not shown) [2-193] | 100% |
| N#Cc1ccc(OC2CCN(c3ccc(C(F)(F)F)cn3)CC2)cc1 [1-29] | 100% |
| C=CC(C)OC(=O)c1cc(C(F)(F)F)ccc1OC1CC2CCC(C1)N2c1ccc(C(F)(F)F)cn1 (stereo not shown) [2-235] | 100% |

Reference: patent publication US8101768B2, “Cyclic amine compound and pest control agent” (Nippon Soda Co., Ltd., priority 2004, dated 2012)
